Data published in patent US8476283B2, “[6,5]—bicyclic GPR119 G protein-coupled receptor agonists” (Bristol-Myers Squibb Company, priority 2007, dated 2013).

Biological target: T1, GPR119 (Homo sapiens, UniProt Q8TDV5)
T1 construct: expressed in transfected cells; host or cells: Flp-In-T-REx 293
T1 sequence (Q8TDV5 1-335): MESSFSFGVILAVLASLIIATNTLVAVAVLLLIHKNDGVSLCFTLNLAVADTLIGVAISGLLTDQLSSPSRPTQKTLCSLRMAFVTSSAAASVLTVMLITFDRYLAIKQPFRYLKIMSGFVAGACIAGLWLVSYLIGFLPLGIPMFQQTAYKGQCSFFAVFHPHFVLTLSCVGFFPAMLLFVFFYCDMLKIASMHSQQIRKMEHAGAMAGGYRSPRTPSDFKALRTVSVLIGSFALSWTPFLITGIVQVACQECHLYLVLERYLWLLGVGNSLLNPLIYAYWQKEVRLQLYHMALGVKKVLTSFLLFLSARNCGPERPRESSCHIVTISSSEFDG
Experiment: Human Tet-Inducible cAMP Assay (hEC50, Table 1)
Format: cell-based
Design: IA: scale not given here
Details: for IA: IA as printed beside hEC50 (not defined in the text); for EC50: human GPR119 agonist activity, cAMP
Procedure: The in vitro modulation of GPR119 was determined as follows.
Human Tet-Inducible cAMP Assay
Cell lines using the Flp-In-T-REx 293 tetracycline inducible gene expression system are cultured in culture medium comprising the following components: DMEM#11965, 10% FBS, 2 mM L-glutamine, 200 ug/ml Hygromycin B, and 15 ug/ml blasticidin.
For cAMP assays, cells are plated on 96 well plates (e.g., BD Falcon: REF 353948, black side, clear bottom, TC surface) at a density of about 4.5×10^4 cells per well in growth medium containing 1.0 ug/ml tetracycline (1.0 mg/ml stock). The cells are then incubated for 48 hours at 37° C.
Following the incubation, the growth medium is removed from the wells and the wells rinsed (once) with the assay buffer included in the Hit Hunter cAMP kit (100 μl/well). Following the wash, 20 μl of assay buffer is added to each well, followed by addition of 10 μl of a 3× concentration compound working solution. The solution is then mixed. The final concentration range of compound is from about 10^−5M to about 10^−11M. The reagents are then incubated at 37° C. at 5% CO2 for 1 hour.
The manufacturer's protocol may be followed for cAMP determination. The Hit Hunter cAMP kit protocol is outlined for the HIT-T15 cAMP assays described above.

SMILES	IA	EC50
CC(C)(C)OC(=O)N1CCC(n2nnc3c(Nc4ccc(S(C)(=O)=O)cc4F)nccc32)CC1 [Example 1, tert-Butyl 4-(4-(2-fluoro-4-(methylsulfonyl)phenylamino)-1H-[1,2,3]triazolo[4,5-c]pyridin-1-yl)piperidine-1-carboxylate]	0.55	1.39 µM
CC(C)(C)OC(=O)N1CCC(n2nnc3c(Oc4ccc(S(C)(=O)=O)cc4)nccc32)CC1 [Example 2, tert-Butyl 4-(4-(4-(methylsulfonyl)phenoxy)-1H-[1,2,3]triazolo[4,5-c]pyridin-1-yl)piperidine-1-carboxylate]	0.29	3.55 µM
CC(C)(C)OC(=O)N1CCC(n2nnc3c(Nc4ccc(S(C)(=O)=O)cc4F)ncnc32)CC1 [Example 3, tert-Butyl 4-(7-(2-fluoro-4-(methylsulfonyl)phenylamino)-3H-[1,2,3]triazolo[4,5-d]pyrimidin-3-yl)piperidine-1-carboxylate]	–	0.0195 µM
CC(C)(C)OC(=O)N1CCC(n2cnc3c(Nc4ccc(C#N)cc4F)ncnc32)CC1 [Example 4, tert-Butyl 4-(6-(4-cyano-2-fluorophenylamino)-9H-purin-9-yl)piperidine-1-carboxylate]	0.70	0.287 µM
CC(C)(C)OC(=O)N1CCC(n2nnc3c(Nc4ccc(C#N)cc4Cl)nccc32)CC1 [Example 5, tert-Butyl 4-(4-(2-chloro-4-cyanophenylamino)-1H-[1,2,3]triazolo[4,5-c]pyridin-1-yl)piperidine-1-carboxylate]	0.27	0.411 µM
CC(C)OC(=O)N1CCC(n2nnc3c(Nc4ccc(S(C)(=O)=O)cc4F)ncnc32)CC1 [Example 6, iso-Propyl 4-(7-(2-fluoro-4-(methylsulfonyl)phenylamino)-3H-[1,2,3]triazolo[4,5-d]pyrimidin-3-yl)piperidine-1-carboxylate]	0.86	0.14 µM
CC(C)OC(=O)N1CCC(n2nnc3c(Nc4ccc(S(C)(=O)=O)cc4Cl)ncnc32)CC1 [Example 7, iso-Propyl 4-(7-(2-chloro-4-(methylsulfonyl)phenylamino)-3H-[1,2,3]triazolo[4,5-d]pyrimidin-3-yl)piperidine-1-carboxylate]	0.68	0.0749 µM
CS(=O)(=O)c1ccc(Nc2ncnc3c2nnn3C2CCN(c3ncccn3)CC2)c(F)c1 [Example 8, N-(2-Fluoro-4-(methylsulfonyl)phenyl)-3-(1-(pyrimidin-2-yl)piperidin-4-yl)-3H-[1,2,3]triazolo[4,5-d]pyrimidin-7-amine]	0.67	0.218 µM
CCc1cnc(N2CCC(n3nnc4c(Nc5ccc(S(C)(=O)=O)cc5F)ncnc43)CC2)nc1 [Example 9, 3-(1-(5-Ethylpyrimidin-2-yl)piperidin-4-yl)-N-(2-fluoro-4-(methylsulfonyl)phenyl)-3H-[1,2,3]triazolo[4,5-d]pyrimidin-7-amine]	0.56	0.263 µM
CC(C)OC(=O)N1CCC(n2cnc3c(Nc4ccc(S(C)(=O)=O)cc4F)ncnc32)CC1 [Example 10, iso-Propyl 4-(6-(2-fluoro-4-(methylsulfonyl)phenylamino)-9H-purin-9-yl)piperidine-1-carboxylate]	0.79	0.407 µM
CS(=O)(=O)c1ccc(Nc2ncnc3c2ncn3C2CCN(c3ncccn3)CC2)c(F)c1 [Example 11, N-(2-Fluoro-4-(methylsulfonyl)phenyl)-9-(1-(pyrimidin-2-yl)piperidin-4-yl)-9H-purin-6-amine]	0.81	0.367 µM
CS(=O)(=O)c1ccc(Nc2ncnc3c2cnn3C2CCN(C(=O)OCc3ccccc3)CC2)c(F)c1 [Example 12, Benzyl 4-(4-(2-fluoro-4-(methylsulfonyl)phenylamino)-1H-pyrazolo[3,4-d]pyrimidin-1-yl)piperidine-1-carboxylate]	0.47	0.203 µM
CC(C)OC(=O)N1CCC(n2ncc3c(Nc4ccc(S(C)(=O)=O)cc4F)ncnc32)CC1 [Example 13, Isopropyl 4-(4-(2-fluoro-4-(methylsulfonyl)phenylamino)-1H-pyrazolo[3,4-d]pyrimidin-1-yl)piperidine-1-carboxylate]	0.69	0.308 µM
CS(=O)(=O)c1ccc(Nc2ncnc3c2cnn3C2CCN(c3ncccn3)CC2)c(F)c1 [Example 14, N-(2-Fluoro-4-(methylsulfonyl)phenyl)-1-(1-(pyrimidin-2-yl)piperidin-4-yl)-1H-pyrazolo[3,4-d]pyrimidin-4-amine]	0.76	0.545 µM
CCc1cnc(N2CCC(n3ncc4c(Nc5ccc(S(C)(=O)=O)cc5F)ncnc43)CC2)nc1 [Example 15, 1-(1-(5-Ethylpyrimidin-2-yl)piperidin-4-yl)-N-(2-fluoro-4-(methylsulfonyl)phenyl)-1H-pyrazolo[3,4-d]pyrimidin-4-amine]	0.94	0.0762 µM
CCCc1cnc(N2CCC(n3ncc4c(Nc5ccc(S(C)(=O)=O)cc5F)ncnc43)CC2)nc1 [Example 16, N-(2-Fluoro-4-(methylsulfonyl)phenyl)-1-(1-(5-propylpyrimidin-2-yl)piperidin-4-yl)-1H-pyrazolo[3,4-d]pyrimidin-4-amine]	1.11	0.0818 µM
Cc1ncccc1Oc1ncnc2c1cnn2C1CCN(C(=O)OCc2ccccc2)CC1.Cl [Example 17, Benzyl 4-(4-(2-methylpyridin-3-yloxy)-1H-pyrazolo[3,4-d]pyrimidin-1-yl)piperidine-1-carboxylate, hydrochloride salt]	0.31	1.9 µM
Cc1ncccc1Oc1ncnc2c1cnn2C1CCN(C(=O)OC(C)C)CC1.Cl [Example 18, Isopropyl 4-(4-(2-methylpyridin-3-yloxy)-1H-pyrazolo[3,4-d]pyrimidin-1-yl)piperidine-1-carboxylate, hydrochloride salt]	0.17	2.72 µM
CC(C)OC(=O)N1CCC(n2ncc3c(Oc4cccnc4C#N)ncnc32)CC1 [Example 19, Isopropyl 4-(4-(2-cyanopyridin-3-yloxy)-1H-pyrazolo[3,4-d]pyrimidin-1-yl)piperidine-1-carboxylate]	0.13	0.505 µM
